Assays:
M. tuberculosis = experiment: time-kill curve method, bactericidal activity (CFU) on solid media at pH6; assay type: cell-based; conditions: FIG. 2
Description: The synergistic effect of AHA in overcoming urea protection of M. tuberculosis and in enhancing the efficacy of PZA is illustrated.
We employed a time-kill curve method to determine the bactericidal activity of PZA and a combination of PZA and acetohydroxamic acid (AHA) against M. tuberculosis. We cultured M. tuberculosis on solid media at pH6. CFU values were determined for samples treated with pyrazinamide (PZA), urea at a typical body fluid concentration and acetohydroxamic acid. […] Consequently, our results provide that AHA acts not only as a PZA booster, but also as an anti-mycobacterial agent, in some instances, in a synergistic manner with the traditional anti-mycobacterial agent used.

mycobacterial urease = mycobacterial urease (Mycobacterium bovis, UniProt A1KJR2); experiment: cell-based; parameters: species or system M. bovis BCG
Sequence of mycobacterial urease (A1KJR2 whole entry, looked up): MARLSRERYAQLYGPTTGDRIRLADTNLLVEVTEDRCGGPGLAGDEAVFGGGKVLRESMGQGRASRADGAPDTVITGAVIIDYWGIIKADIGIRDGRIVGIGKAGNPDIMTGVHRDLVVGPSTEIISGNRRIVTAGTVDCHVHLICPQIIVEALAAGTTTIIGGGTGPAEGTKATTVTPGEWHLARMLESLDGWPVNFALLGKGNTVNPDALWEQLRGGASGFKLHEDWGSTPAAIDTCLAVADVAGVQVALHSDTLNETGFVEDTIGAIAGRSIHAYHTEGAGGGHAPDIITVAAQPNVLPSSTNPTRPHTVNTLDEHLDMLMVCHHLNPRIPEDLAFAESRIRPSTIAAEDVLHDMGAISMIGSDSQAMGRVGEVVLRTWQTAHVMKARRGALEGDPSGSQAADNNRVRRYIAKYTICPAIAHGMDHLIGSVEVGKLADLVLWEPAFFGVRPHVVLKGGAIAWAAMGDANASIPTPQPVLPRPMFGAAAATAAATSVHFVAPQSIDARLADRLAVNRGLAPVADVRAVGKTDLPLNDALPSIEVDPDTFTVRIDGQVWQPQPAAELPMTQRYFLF

| SMILES | kill (bactericidal activity, CFU) (M. tuberculosis; PZA alone, M. tuberculosis on solid media at pH6) | IC50 (mycobacterial urease) | effect on kill rate (M. tuberculosis; AHA combined with PZA (urea present), solid media pH6) | effect on urea protection against the PZA kill (M. tuberculosis; AHA with PZA and urea at a typical body fluid concentration, solid media pH6) |
| --- | --- | --- | --- | --- |
| NC(=O)c1cnccn1 [PZA, pyrazinamide] | modest |  |  |  |
| CC(=O)NO [acetohydroxamic acid] |  | 100 to 200 µM | substantially increased the kill rate | prevented urea protection |

Source: patent US20170056345A1 (priority 2014, published 2017)
